Drawing on patent US20080076760A1, “2,3,4,5-TETRAHYDRO-1H-1,5-BENZODIAZEPINE DERIVATIVE AND MEDICINAL COMPOSITION” (priority 2004, published 2008), this text covers Ki for 20 compounds.

Assay [1] deals with human vasopressin V1a receptor (Homo sapiens, UniProt P37288). As to the kind of experiment: Receptor binding study, [3H]AVP displacement on CHO cell membranes, human V1a. Conditions: [3H]AVP displacement, CHO cell membrane, 25° C., one hour; read-out: Human V1a Ki. The procedure: (§1) (ii) Receptor Binding Study
(§2) Assay was performed using 50 mM of Tris-HCl (pH=7.4) (total amount: 250 μL) (buffer composition: containing […] of MgCl2 and 0.1% BSA), and incubation was performed at room temperature (25° C.) for one hour. After incubation, suck filtration was immediately performed and reaction was completed when the membrane sample was collected on a glass fiber filter fitted with the microplate. After the filter was washed with an ice-cold Tris-HCl buffer (50 mM Tris-HCl, 10 mM MgCl2, pH 7.4), radioactivity measurement was performed. Nonspecific binding was determined using nonradioactive-labeled AVP (1 μM).

The target of assay [2] is human vasopressin V2 receptor (Homo sapiens, UniProt P30518). As to the kind of experiment: Receptor binding study, [3H]AVP displacement on CHO cell membranes, human V2. Conditions: [3H]AVP displacement, CHO cell membrane, 25° C., one hour; read-out: Human V2 Ki. The method, then: Preparation of Chinese hamster ovary (Cho) cell which expresses human vasopressin receptor subtype and production of membrane sample of the cell was conducted according to the method of Tahara et al. (Br. J. Pharmacol., 125, 1463-1470, 1998).
as §1
as §2, with “In saturation binding experiment, the membrane sample and [^3H]AVP of several concentrations (0.125 nM to 4.0 nM) were mixed and incubated in microplate wells. In displacement experiment, [^3H]AVP of constant concentrations (0.5 nM to 1.0 nM) and the membrane sample were mixed with Compound A of several concentrations, and incubation was performed. Assay” for “Assay”

Sequence of human vasopressin V2 receptor (P30518 whole entry): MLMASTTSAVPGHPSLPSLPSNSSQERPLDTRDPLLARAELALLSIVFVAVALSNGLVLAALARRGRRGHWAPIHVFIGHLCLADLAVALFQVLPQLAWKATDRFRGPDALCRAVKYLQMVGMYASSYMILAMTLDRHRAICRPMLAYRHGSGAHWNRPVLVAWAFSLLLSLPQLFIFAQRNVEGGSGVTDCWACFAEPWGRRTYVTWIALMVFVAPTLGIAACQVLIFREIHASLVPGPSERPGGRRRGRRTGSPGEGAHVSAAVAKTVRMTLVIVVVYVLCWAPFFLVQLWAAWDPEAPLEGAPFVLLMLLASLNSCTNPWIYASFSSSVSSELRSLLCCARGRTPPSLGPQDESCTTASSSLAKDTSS
Sequence of human vasopressin V1a receptor (P37288 whole entry): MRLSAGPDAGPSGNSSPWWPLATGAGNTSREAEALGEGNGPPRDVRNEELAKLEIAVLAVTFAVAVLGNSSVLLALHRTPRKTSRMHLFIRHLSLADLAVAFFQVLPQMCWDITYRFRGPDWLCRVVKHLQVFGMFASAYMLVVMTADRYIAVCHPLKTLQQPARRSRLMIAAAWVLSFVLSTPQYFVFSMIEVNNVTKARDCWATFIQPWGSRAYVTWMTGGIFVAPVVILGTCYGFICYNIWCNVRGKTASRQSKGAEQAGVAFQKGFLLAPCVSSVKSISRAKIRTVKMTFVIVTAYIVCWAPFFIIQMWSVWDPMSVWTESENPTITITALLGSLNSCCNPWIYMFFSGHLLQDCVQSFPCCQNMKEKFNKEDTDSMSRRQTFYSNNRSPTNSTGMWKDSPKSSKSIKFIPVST

With `C[C@H]1CCN(C(=O)c2ccc(-c3ccc4[nH]ccc4c3)c(OCCCN3C(=O)CNC3=O)c2)c2ccccc2N1` [Example 97, 3-[3-[2-(1H-indol-5-yl)-5-[[(4S)-4-methyl-2,3,4,5-tetrahydro-1H-1,5-benzodiazepin-1-yl]carbonyl]phenoxy]propyl]-2,4-imidazolidinedion], the results for the Ki in assay [1] and in assay [2] were 0.13 nM and 0.39 nM, respectively.

`CC1CCN(C(=O)c2ccc(-c3ccc4[nH]ccc4c3)c(OCCN3CCOCC3)c2)c2ccccc2N1` (stereo not shown) [Example 46, 2-(1H-indol-5-yl)-5-[(4-methyl-2,3,4,5-tetrahydro-1H-1,5-benzodiazepin-1-yl)carbonyl]phenyl 2-(4-morpholinyl)ethyl ether]: the figures for the Ki in assay [1] and in assay [2] were 0.24 nM and 1.1 nM, respectively.

For the compound `CCN(C)CCCOc1cc(C(=O)N2CC[C@H](C)Nc3ccccc32)ccc1-c1ccc2[nH]ccc2c1` [Example 118, N-ethyl-3-[2-(1H-indol-5-yl)-5-[[(4S)-4-methyl-2,3,4,5-tetrahydro-1H-1,5-benzodiazepin-1-yl]carbonyl]phenoxy]-N-methyl-1-propaneamine], the Ki (as a rule, the equilibrium dissociation constant of an inhibitor or competing ligand from its target) in assay [1] turned out to be 0.15 nM; in assay [2] it was 9.5 nM.

In the case of `CC1CCN(C(=O)c2ccc(-c3ccc4[nH]ccc4c3)c(OCCCCCCN)c2)c2ccccc2N1` (stereo not shown) [Example 39, 6-[2-(1H-indol-5-yl)-5-[(4-methyl-2,3,4,5-tetrahydro-1H-1,5-benzodiazepin-1-yl)carbonyl]phenoxy]hexylamine], the Ki in assay [1] stood at 0.22 nM; in assay [2], 5.2 nM.

As to `C[C@H]1CCN(C(=O)c2ccc(-c3ccc4[nH]ccc4c3)c(NS(C)(=O)=O)c2)c2ccccc2N1` [Example 48, N-[2-(1H-indol-5-yl)-5-[[(4S)-4-methyl-2,3,4,5-tetrahydro-1H-1,5-benzodiazepin-1-yl]carbonyl]phenyl]methanesulfonamide], the results for the Ki in assay [1] and in assay [2] were 0.23 nM and 1.5 nM, respectively.

Consider `CCCN(C)CCCCCOc1cc(C(=O)N2CC[C@H](C)Nc3ccccc32)ccc1-c1ccc2[nH]ccc2c1` [Example 126], for which the values for the Ki in assay [1] and in assay [2] were 0.24 nM and 7 nM, respectively.

As for `CC(=O)Nc1cc(C(=O)N2CC[C@@H](C)Nc3ccccc32)ccc1-c1ccc2[nH]ccc2c1` [Example 16, N-[2-(1H-indol-5-yl)-5-[[(4R)-4-methyl-2,3,4,5-tetrahydro-1H-1,5-benzodiazepin-1-yl]carbonyl]phenyl]acetamide], the results for the Ki in assay [1] and in assay [2] were 0.33 nM and 63 nM, respectively.

With `CCCN(C)CCCCOc1cc(C(=O)N2CC[C@H](C)Nc3ccccc32)ccc1-c1ccc(NCC)cc1` [Example 156], the values for the Ki in assay [1] and in assay [2] were 0.19 nM and 53 nM, respectively.

For `CCCN(CCC)CCCOc1cc(C(=O)N2CC[C@H](C)Nc3ccccc32)ccc1-c1ccc2[nH]ccc2c1` [Example 79, N-[3-[2-(1H-indol-5-yl)-5-[[(4S)-4-methyl-2,3,4,5-tetrahydro-1H-1,5-benzodiazepin-1-yl]carbonyl]phenoxy]propyl]-N,N-dipropylamine], the Ki in assay [1] is 0.13 nM; in assay [2], 16 nM.

As to `CC(=O)Nc1cc(C(=O)N2CCC(C)Nc3ccccc32)ccc1-c1ccc2[nH]ccc2c1` (stereo not shown) [Example 3, N-[2-(1H-indol-5-yl)-5-[(4-methyl-2,3,4,5-tetrahydro-1H-1,5-benzodiazepin-1-yl)carbonyl]phenyl]acetamide], the results for the Ki in assay [1] and in assay [2] were 0.18 nM and 22 nM, respectively.

Turning to `CCC1CCN(C(=O)c2ccc(-c3ccc4[nH]ccc4c3)c(NC(C)=O)c2)c2ccccc2N1` (stereo not shown) [Example 8, N-[5-[(4-ethyl-2,3,4,5-tetrahydro-1H-1,5-benzodiazepin-1-yl)carbonyl]-2-(1H-indol-5-yl)-phenyl]acetamide], the Ki worked out at 0.16 nM in assay [1] and 15 nM in assay [2].

Regarding `C[C@H]1CCN(C(=O)c2ccc(-c3ccc4[nH]ccc4c3)c(OCCCN(C)CCN(C)C)c2)c2ccccc2N1` [Example 112, N1-[3-[2-(1H-indol-5-yl)-5-[[(4S)-4-methyl-2,3,4,5-tetrahydro-1H-1,5-benzodiazepin-1-yl)carbonyl]phenoxy]propyl]-N1,N2,N2-trimethyl-1,2-ethaneamine], the results for the Ki in assay [1] and in assay [2] were 0.42 nM and 23 nM, respectively.

Regarding `CCCCN1CCN(CCOc2cc(C(=O)N3CC[C@H](C)Nc4ccccc43)ccc2-c2ccc3[nH]ccc3c2)CC1` [Example 148, (4S)-1-[3-[2-(4-butyl-1-piperazinyl)ethoxy]-4-(1H-indol-5-yl)benzoyl]-4-methyl-2,3,4,5-tetrahydro-1H-1,5-benzodiazepine], the Ki came to 0.23 nM in assay [1] and 9.6 nM in assay [2].

Regarding `CCCN(C)CCOc1cc(C(=O)N2CC[C@H](C)Nc3ccccc32)ccc1-c1ccc2[nH]ccc2c1` [Example 121, N-[2-[2-(1H-indol-5-yl)-5-[[(4S)-4-methyl-2,3,4,5-tetrahydro-1H-1,5-benzodiazepin-1-yl]carbonyl]phenoxy]ethyl]-N-methyl-1-propaneamine], the values for the Ki in assay [1] and in assay [2] were 0.14 nM and 10 nM, respectively.

For `CCCN1CCC(OC(=O)c2cc(C(=O)N3CC[C@H](C)Nc4ccccc43)ccc2-c2ccc3[nH]ccc3c2)CC1` [Example 138], the Ki in assay [1] stood at 0.23 nM; in assay [2], 34 nM.

As to `C[C@H]1CCN(C(=O)c2ccc(-c3ccc4[nH]ccc4c3)c(OCCCN3CCN(C)CC3)c2)c2ccccc2N1` [Example 70, (4S)-1-[4-(1H-indol-5-yl)-3-[3-(4-methyl-1-piperazinyl)propoxy]benzoyl]-4-methyl-2,3,4,5-tetrahydro-1H-1,5-benzodiazepine], the Ki in assay [1] turned out to be 0.19 nM; in assay [2] it was 6.9 nM.

In the case of `CCCN(C)CCCOc1cc(C(=O)N2CC[C@H](C)Nc3ccccc32)ccc1-c1ccc2[nH]ccc2c1` [Example 81, N-[3-[2-(1H-indol-5-yl)-5-[[(4S)-4-methyl-2,3,4,5-tetrahydro-1H-1,5-benzodiazepin-1-yl]carbonyl]phenoxy]propyl]-N-methyl-N-propylamine], the Ki in assay [1] came to 0.17 nM; in assay [2], 8 nM.

For the compound `CCN(CC)CCCOc1cc(C(=O)N2CC[C@H](C)Nc3ccccc32)ccc1-c1ccc2[nH]ccc2c1` [Example 116, N,N-diethyl-3-[2-(1H-indol-5-yl)-5-[[(4S)-4-methyl-2,3,4,5-tetrahydro-1H-1,5-benzodiazepin-1-yl]carbonyl]phenoxy]-1-propaneamine], the inhibition constant (Ki) in assay [1] amounted to 0.16 nM; in assay [2] it was 11 nM.

On to `C[C@H]1CCN(C(=O)c2ccc(-c3ccc4[nH]ccc4c3)c(CN3CCOCC3)c2)c2ccccc2N1` [Example 94, (4S)-1-[4-(1H-indol-5-yl)-3-(4-morpholinylmethyl)benzoyl]-4-methyl-2,3,4,5-tetrahydro-1H-1,5-benzodiazepine], for which the figures for the Ki in assay [1] and in assay [2] were 0.21 nM and 0.73 nM, respectively.

`C[C@H]1CCN(C(=O)c2ccc(-c3ccc4[nH]ccc4c3)c(OCCCN3CCC[C@H]3C(N)=O)c2)c2ccccc2N1` [Example 88, (2S)-1-[3[2-(1H-indol-5-yl)-5-[[(4S)-4-methyl-2,3,4,5-tetrahydro-1H-1,5-benzodiazepin-1-yl]carbonyl]phenoxy]propyl]-2-pyrrolidine carboxamide]: the Ki in assay [1] came to 0.3 nM; in assay [2], 3 nM.
